Here are results for three compounds from patent US20220257741A1, “COMBINATION THERAPY FOR CANCER” (IO Biotech ApS, priority 2016, published 2022).

One assay relates to TC-1 tumour. As to the kind of experiment: TC-1 tumour model, IDO-Pep1 with 1-MT (Example 9). The assay is classed as in vivo, C57BL/6 mice. The conditions noted are these: 1-MT 2 mg/ml in drinking water; IDO-Pep1 100 μg/mouse s.c.
The test system of another assay is CT26 tumours. The experiment in a line: CT26 tumour model, prophylactic vaccination (Example 10). The assay is classed as in vivo, BALB/c mice. As to conditions: 100 μg peptide + 30 μg CpG in Montanide, 7 days prior to tumour challenge. The method, then:
BALB/c mice were prophylactically vaccinated with a mouse IDO peptide IDO-EP2 ([…]; SEQ ID NO: 34) and challenged with CT26 tumours 7 days later. The efficacy of the peptide vaccine was assessed by tumour burden. The mouse IDO peptide sequence (IDO-Pep1) was selected to provide a murine analog for the human IDO peptides tested in the earlier Examples, because the sequence of murine IDOL differs to that of human IDO1.
6-10 week-old BALB/c mice were immunized by subcutaneous injection at the base of the tail of 100 μg peptide IDO-EP2+30 μg CpG in 100 μL, Montanide adjuvant [Montanide ISA 51 VG (Seppic)] prepared as a 1:1 emulsification. Immunizations were carried out 7 days prior to tumour challenge. For CT26 tumour cell engraftment, each mouse received two subcutaneous injections (one on each flank) of 1×10^5 CT26 in 100 μL serum free DMEM. Caliper measurements of tumour length and width were recorded every 3-4 days beginning at day 6. Tumour volume was calculated using the formula 0.52(L×W^2). Mice were euthanized when the combined tumour volume reached the defined endpoint of approximately 2,000 mm^3.

Another assay concerns PBMC. As to the kind of experiment: Direct IFN-γ ELISpot of patient PBMC stimulated with IO102 peptide. The conditions noted are these: patient PBMC at baseline, 5 μM peptide. The format is cell-based, human.
Assay [1] relates to IDO-specific T cell cultures. As to the kind of experiment: Intracellular cytokine staining of IO102 stimulated T-cell cultures. The assay is classed as cell-based, human. As to conditions: after four weeks of in vitro IO102 stimulation, patients #02, #05, #07. The method, then:
PBMCs were stimulated with IO102 peptide in X-vivo 15 with 5% human AB serum and 120 U/ml IL2 (Novartis, Denmark) in 24 well plates (Nunc, Fischer Scientific). Initially, 20 μM peptide was used, and the cultures were re-stimulated every 7 days with a log10 decreased concentration of peptide for every week. Cell-cultures were supplemented with new IL2 every 7-10 days. Cells were kept at a concentration of 3-4×10^6/well.
For enrichment and expansion of the IDO-specific T cells, cultured cells were restimulated, after four weeks of culture, with 20 μM peptide and enriched with the TNF-α Secretion Assay (Miltenyi Biotec) according to the manufacturer's instructions. Cells were peptide stimulated 2.5 hours before staining with the primary antibody. Enriched cells were expanded in a modified rapid expansion protocol (see below).
T cells enriched for IDO-reactivity were expanded, and approximately 1-2×10^5 cells were used initially. […] Cultures were regularly assessed with regard to cell-numbers and colour of the media, and transferred to T80 or T175 flasks in addition to adding new media if appropriate. Cells were harvested after total 14 days of culture and either analyzed directly or cryopreserved in […] AB serum and 10% dimethyl sulphoxide. […]

Another assay has as its system CMV-specific CD8 T cells. As to the kind of experiment: Boost effect on CMV peptide-induced stimulation of T cells (tetramer staining, Example 2). The format is cell-based. As to conditions: peptide added to CMV stimulated cell cultures, day 15. The method, then: Day 1: • Buffy coat samples were thawed, washed twice, resuspended in medium. Cells were counted. • Cells were then added to the wells of cell culture plates at 5×10^6/0.5 ml in X-VIVO+5% HS • Wells were stimulated with CMV peptide for 2 hours at room temperature. The CMV peptide used was HCMV pp65 495-504 ([…]). • After 2 hours IDO5, IO102 or an irrelevant HIV peptide used as control were added according to Table X and plates incubated for additional 2 hours at room temperature. • Added 1500 microL X-VIVO/5% HS to each well and placed plates in an incubator at 37° C.
Day 2 and 9: • IL2 was added ([…]
Day 8: • Wells were restimulated with IDO5, IO102 or HIV peptides, added according to table X before incubation for 2 hours at room temperature. • After restimulation the contents of each well were split in two and 1.5 ml X-VIVO+5% HS/well was added. • Plates were placed in an incubator at 37° C.
Day 15: • Cells were harvested and analysed by flow cytometry. • The percentage of CMV-specific CD8 T cells in each well was identified by using a CD8 monoclonal antibody (mAb) as well as the tetramer complexes HLA-A2/CMV pp65 495-504. • As control, cells were in addition stained with the tetramer complex HLA-A2/HIV-1 po1476-484 and CD8 mAb (data not shown).

The test system of assay [2] is THP-1 cells. The experiment in a line: 51Cr-release assay, PBMC killing of THP-1 (Example 4). The assay is classed as cell-based. The conditions noted are these: peptide 0.1 μM, day 17, range of E/T ratios. The method, then: (§1) Buffycoats were thawed (day 0), washed twice, resuspended in medium, counted and plated into wells as set out in Table Z4. THP-1 cells were irradiated with 30 GY and washed twice in medium. THP-1 cells were counted and added to PBMC containing wells as set out in Table Z4 (total volume 2 ml). Plates were placed in an incubator at 37 degrees. On days 7 and 14, 1 ml supernatant/well was removed. Cells were harvested and analyzed for cytotoxic activity on day 17. A standard ^51Cr-release assay was used to measure the cytotoxic potential of the peptide treated PBMCs. ^51Cr labeled THP-1 cells were used as target cells and peptide treated PBMCs as effector cells. Triton-X treated wells was used as maximum measurable lysis and medium alone as minimum lysis.
% Specific lysis=((cpmsample−cpmminimum)/(cpmmaximum−cpmminimum))×100%

Assay [3] deals with THP-1 cells. The experiment in a line: 51Cr-release assay, PBMC killing of THP-1 (Example 5). The format is cell-based. As to conditions: peptide 0.1 μM. The method, then:
as §1, with “Z5.” for “Z4.”, “Z5” for “Z4”, “day 7,” for “days 7 and 14,”, “removed. Fresh irradiated THP-1 cells were prepared and counted as above and 1 ml added to the wells as shown in Table Z5” for “removed.”, “23.” for “17.”
% specific lysis=((CPMsample−cpmminimum)/(cpmmaximum−cpmminimum))×100%

Procedure for TC-1 tumour: The efficacy of the vaccines was assessed by overall survival.
4-6 week-old C57BL/6 mice were injected with 70,000 cell/ mouse of TC-1 cells. Treatment in respective groups was started when tumour reached an average size of approximately 0.075 cm^3 (approx. 10 days after tumour inoculation). For vaccination mouse IDO epitope, IDO-Pep1 was used. Mice were vaccinated subcutaneously with IDO Pep-1 at a dosage of 100 μg/mouse in combination with a Pan-HLADR-binding epitope (PADRE; aK-Cha-[sequence]a, 20 μg/mouse) and QuilA (10 μg/mouse). Mice were vaccinated two-three times with one-week interval, and the efficacy of the peptide vaccines was assessed by measuring tumour volume and/or survival. A group of mice were treated with 1-methyl tryptophan (1-MT) given in drinking water (2 mg/ml) for the duration of the study, and additional group of mice were treated with both IDO-Pep1 and 1-MT.

Consider `Cn1cc(C[C@H](N)C(=O)O)c2ccccc21` [1-MT, 1-methyltryptophan], for which the “Therapeutic efficacy (survival)” value in the assay on TC-1 tumour is reported as “modest therapeutic efficacy”.
For the compound “LPTLSTDGL (listed as Homo sapiens) [IDO-EP2]”, the “Anti-tumour effect (tumour volume)” value with CT26 tumours is given as “anti-tumour protective effect”.
Turning to “DTLLKALLEIASCLEKALQVF (listed as Homo sapiens) [IO102, 21 amino acid peptide, residues 194-214 of indoleamine 2,3-dioxygenase]”, the “Pre-treatment IFN-γ ELISpot responses towards IO102” value in the assay with PBMC is on record as “none of the patients had detectable pre-treatment responses”. Besides, the “Cytokine-positive T cells upon stimulation with IO102” value in assay [1] is “enrichment of cytokine-positive T cells was demonstrated, primarily CD4+”. Moreover, in the assay on CMV-specific CD8 T cells, the “Fraction of CMV-specific T cells” value was “larger fraction of CMV-specific T cells compared to adding IDO5/IO101”. Besides, the “Allogenic killing (lysis) of THP-1 cells by PBMCs” value in the assay with THP-1 cells [2] was “enhanced the allogenic killing of the THP-1 cells”. Also, the “Allogenic killing of THP-1 cells compared to control peptide IDO scrambled” value in the assay with THP-1 cells [3] (day 23, E/T ratios 2:1-60:1) was “enhanced the allogenic killing of the THP-1 cells”. Further, the “Lysis of THP-1 cells compared to IDO5 peptide” value in the assay with THP-1 cells [3] (day 23, low E/T ratios) is on record as “more efficient lysis of THP-1 cells”.
